Measured values reported in patent publication US20240122880A1, “COMPOSITIONS FOR TREATING HYPERCHOLESTEROLEMIA AND PREPARATION METHODS THEREOF” (UNIVERSITY OF SAN AGUSTIN, priority 2020, published 2024).

Experiments:
lipase = assay: Lipase inhibition assay (glycerol generated from cleavage of triglycerides, Sigma MAK046 kit); type: biochemical; conditions: relative to untreated lipase enzyme
Method: The lipase inhibition activities of the pineapple flesh, core, and stem crude extracts were determined by measuring the glycerol generated from the cleavage of triglycerides. The storage and preparation instruction were done according to the stated protocol of MAK, 046, Sigma Aldrich®, St. Louis, MO, USA.
Twenty μL of 750 mg/mL flesh, core, and stem at 100 mg/mL final concentration crude extracts were added to their respective wells.
Two μL of the lipase and Orlistat™ at 100 mg/mL and 10 mg/mL, respectively, were added to wells to serve as negative and positive control. All standards and samples were adjusted to 50 μL by adding Lipase Assay Buffer. A 100-μL reaction mix consisting of 93 μL Lipase Assay Buffer, 2 μL peroxidase substrate, 2 μL enzyme mix and 3 μL of lipase substrate was added to each well.
Absorbance was read at 570 nm every five minutes using CLARIOStar™ microplate reader at 37° C. incubation at slow kinetics mode for two hours. The percent lipase inhibition was calculated relative to the untreated lipase enzyme.

HMG-CoA reductase = target: T1, HMG-CoA reductase (Homo sapiens, UniProt P04035); assay: HMG-CoA reductase inhibition assay (NADPH oxidation at 340 nm, Sigma CS1090 kit); type: biochemical; conditions: sample concentration 2.1 μg/mL
T1 construct: by the catalytic subunit of 3-hydroxy-3-methylglutaryl CoA reductase; purchased Sigma Aldrich CS1090
T1 sequence (P04035 340-888 limits assumed): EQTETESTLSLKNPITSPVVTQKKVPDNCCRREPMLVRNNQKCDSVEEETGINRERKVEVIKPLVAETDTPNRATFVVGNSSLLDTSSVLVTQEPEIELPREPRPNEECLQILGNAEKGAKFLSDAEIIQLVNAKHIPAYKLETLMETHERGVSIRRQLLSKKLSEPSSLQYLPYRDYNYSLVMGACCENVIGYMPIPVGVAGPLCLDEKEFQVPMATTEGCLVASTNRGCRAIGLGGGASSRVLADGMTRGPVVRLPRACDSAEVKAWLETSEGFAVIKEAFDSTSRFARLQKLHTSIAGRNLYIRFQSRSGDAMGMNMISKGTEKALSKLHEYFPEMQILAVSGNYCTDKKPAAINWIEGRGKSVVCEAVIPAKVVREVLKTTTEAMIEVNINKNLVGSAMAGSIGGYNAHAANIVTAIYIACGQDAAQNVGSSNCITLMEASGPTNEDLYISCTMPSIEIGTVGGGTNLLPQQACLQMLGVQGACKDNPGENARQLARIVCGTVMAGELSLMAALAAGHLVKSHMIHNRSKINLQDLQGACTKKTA
Method: The assay was based on the spectrophotometric measurement of the decrease in absorbance at 340 nm, which represents the oxidation of Nicotinamide Adenine Dinucleotide Phosphate (NADPH) by the catalytic subunit of 3-hydroxy-3-methylglutaryl CoA reductase in the presence of substrate HMG-CoA. All storage and reagent preparations were performed according to the protocol (CS1090, Sigma Aldrich®, St. Louis, MO, USA).
Assay buffer (1×) in the HMG-CoA assay kit was added to all samples. 184 μL for the blank, 182 μL for the activity control, 181 μL for the inhibition control and samples according to the manufacturer's instructions in the Sigma-Aldrich® CS1090 assay kit.
Pravastatin™ (2.1 μg/mL) positive control, 20 μL of […], core (100 mg/mL final concentration) and 20 μL of 50 mg/mL stem (5 mg/mL final concentration) crude extracts were added to its assay buffers. Lower reaction concentration of extracts (20 μL of 250 mg/mL to obtain 25 mg/mL final concentration of flesh and core crude extracts) was also tested against HMG-CoA reductase enzyme.
Four μL of NADPH and 12 μL HMG-CoA substrate were also added to the treatments. The HMG-CoA reductase enzyme (2 μL) was kept on ice until added to the activity, inhibition controls, and samples.
The absorbance at 340 nm was monitored for every 20 seconds for up to 10 minutes using CLARIOStar™ plate reader. […]

HMG-COA reductase inhibition activity (HMG-CoA reductase) [%] | SMILES | Lipase inhibition activity (lipase; sample concentration 10 mg/mL) [%] | Lipase inhibition activity (lipase; sample concentration 100 mg/mL) [%]
– | CCCCCCCCCCC[C@@H](C[C@@H]1OC(=O)[C@H]1CCCCCC)OC(=O)[C@H](CC(C)C)NC=O [Orlistat ™, Orlistat] | 100±0.05 | 100 ± 0.05
82 | CC[C@H](C)C(=O)O[C@H]1C[C@H](O)C=C2C=C[C@H](C)[C@H](CC[C@@H](O)C[C@@H](O)CC(=O)O)[C@H]21 [Pravstatin ™, Pravastatin] | – | –
